Source: patent US11400101B2, “Treatment of allergic rhinitis using a combination of mometasone and olopatadine” (GLENMARK SPECIALTY S.A., priority 2013, dated 2022)

What was measured:
sneezing response = assay: Sneezing response in ovalbumin induced rhinitis model (whole body plethysmography); assay type: in vivo, guinea pigs; conditions: for Inhibition of sneezing response (in words) / Number of Sneeze (0-50 min): MF 10 μg; for Percent inhibition of sneeze: MF 10 μg per animal, vs ovalbumin control; for Number of Sneeze (0-50 min): intranasal, ovalbumin challenged
Description: Male Dunkin Hartley guinea pigs were actively sensitized with a subcutaneous injection of 1.5 mg of ovalbumin and 20 mg of aluminum hydroxide gel on days 0 and 7. Guinea pigs were sensitized intranasally with 2% ovalbumin from days 14-17. On day 28, the animals were challenged with 6% ovalbumin intranasally. Mometasone furoate 10 μg was given intranasally 24 hours and 1 hour prior to the final ovalbumin challenge. Olopatadine hydrochloride was given intranasally 1 hour before the final ovalbumin challenge. The dosing volume was 40 μl/animal. The saline control group and ovalbumin control group received vehicle (40 μl, 0.1% Tween 80 in distilled water). Sneezing response was determined by using whole body plethysmography (Buxco Research Systems, USA) for 50 minutes after final saline or ovalbumin challenge. The procedure in Example 1 was repeated except 120 μg of olopatadine hydrochloride (based on the equivalent weight of olopatadine free base) was used. The animal groups in Table 3 below were used during this experiment. Compound administration was performed as in Example 1, except the dosing volume was 60 μl/animal. The saline control group and ovalbumin control group received vehicle (60 μl, 0.1% Tween 80 in distilled water). In vivo evaluations were performed as in Example 1.

[1] = Plasma pharmacokinetics of TP-1 in the Phase III study, day 1 and day 8 (steady state); assay type: in vivo, human; conditions: human, in vivo
Description: (§1) This study consisted of four visits to the study site. After the initial screening visit (Visit 1), subjects who met all study selection criteria were required to undergo a single-blind placebo run-in period for 7-10 days. Following the completion of the run-in period, eligible subjects meeting the randomization criteria were enrolled and randomized to one of the four treatment arms. Subjects were dispensed medication as per the randomization list. Randomized subjects were required to undergo a 2 week (14 days) treatment period as per the protocol to assess the efficacy and safety of the assigned treatment. Subjects were instructed to record the symptom scores in a symptom assessment diary. They were also scheduled to have at least two blood samples for PK assessment during the treatment period.
• Change from baseline in average AM and PM subject-reported 12-hour rTNSS (reflective TNSS) over the 14-day treatment period. Secondary Endpoints • Change from baseline in average AM and PM subject-reported 12-hour iTNSS (instantaneous TNSS) over the 14 day treatment period. • Change from baseline in average AM and PM subject-reported 12-hour rTOSS (reflective TOSS) over the 14-day treatment period. • Onset of action for each treatment are assessed by comparing the change from baseline in post-treatment iTNSS between each active treatment and placebo at defined time points (prior to first dose (pre-dose), 15 min, 30 min, 45 min, 60 min, 90 min, 120 min, 150 min, 180 min, 210 min, and 240 min) after the first study treatment for 4 hours. • Change from baseline in the overall Rhinoconjunctivitis Quality of Life questionnaire (RQLQ)—Standardized Activities (RQLQ(S)) score on Day 15 (Visit 4) for the Full Analysis Set (FAS). Pharmacokinetic Endpoints • Plasma PK: Maximum plasma concentration (Cmax), time to attain Cmax (Tmax), and area under the plasma concentration-time curve over the dosing interval (AUCtau) will be estimated for mometasone furoate and olopatadine on Day 1 and Day 8 based on the pharmacokinetic analysis set (PKAS). Tertiary Efficacy Endpoints Nasal Symptoms: • Change from baseline in AM subject-reported rTNSS over the 14-day treatment period. • Change from baseline in AM subject-reported iTNSS over the 14-day treatment period. • Change from baseline in PM subject-reported rTNSS over the 14-day treatment period. • Change from baseline in PM subject-reported iTNSS over the 14-day treatment period. • Change from baseline in subject-reported reflective individual nasal symptoms over the 14-day treatment period (AM, PM and average of AM and PM). • Change from baseline in subject-reported instantaneous individual nasal symptoms over the 14-day treatment period (AM, PM and average of AM and PM). • Change from baseline in average AM and PM subject-reported rTNSS and iTNSS for each day. • Change from baseline in AM subject-reported rTNSS and iTNSS for each day. • Change from baseline in PM subject-reported rTNSS and iTNSS for each day. […]

[2] = Pharmacokinetics of olopatadine, single-dose three-period cross-over study, Example 12; assay type: in vivo, human; conditions: single dose nasal spray
Description: The pharmacokinetics of olopatadine in a fixed dose combination of mometasone furoate and olopatadine hydrochloride nasal spray was evaluated in a clinical trial. The clinical trial was a randomized, single-center, single-dose, open-label, three-period, six-sequence, cross-over study to evaluate three treatments administered as a nasal spray. The three treatments included a combination of mometasone furoate and olopatadine hydrochloride nasal spray, olopatadine hydrochloride nasal spray and […]® nasal spray. […] The study consisted of a screening visit, 3 single-dose treatment periods with washout periods of 7 to 14 days between dosing in each treatment period, an early withdrawal visit if applicable, and a follow-up telephone call (or visit) 1 to 7 days after completing the third treatment period. A total of 30 subjects were randomized to 1 of 6 treatment sequences and received at least 1 dose of study drug. All 30 subjects were included in the safety analysis set and the pharmacokinetic subset. All but 2 subjects completed the study per protocol.

[3] = test system: total cells and eosinophils in nasal lavage; assay: Nasal lavage total cell count and eosinophils in ovalbumin induced rhinitis model; assay type: in vivo, guinea pigs; conditions: for Inhibition of total cell and eosinophils in nasal lavage (in words): MF 10 μg; for % inhibition of eosinophils / Percent inhibition of total cell count / Eosinophils × 10^5/ml nasal lavage / Total cell count × 10^5/ml nasal lavage: MF 10 μg per animal
Description: Male Dunkin Hartley guinea pigs were actively sensitized with a subcutaneous injection of 1.5 mg of ovalbumin and 20 mg of aluminum hydroxide gel on days 0 and 7. Guinea pigs were sensitized intranasally with 2% ovalbumin from days 14-17. On day 28, the animals were challenged with 6% ovalbumin intranasally. Mometasone furoate 10 μg was given intranasally 24 hours and 1 hour prior to the final ovalbumin challenge. Olopatadine hydrochloride was given intranasally 1 hour before the final ovalbumin challenge. The dosing volume was 40 μl/animal. The saline control group and ovalbumin control group received vehicle (40 μl, 0.1% Tween 80 in distilled water). Nasal lavage was performed at 4 hours after challenge of animals with saline or ovalbumin on day 28. Animals were anesthetized with an overdose of urethane, the trachea was exposed and nasal lavage was performed using 2 mL pre-warmed normal saline. The collected nasal lavage was taken for total cell count using a hemocytometer. The nasal lavage was centrifuged, and the cell pellet resuspended in 15 μL guinea pig serum and used for preparation of smears. Slides were stained with Leishman's stain and a differential cell count of 100 cells based on standard morphology was performed manually. The total number of eosinophils in each nasal lavage sample was calculated using the formula: [formula] Percent inhibition of eosinophils was calculated using the following formula: The procedure in Example 1 was repeated except 120 μg of olopatadine hydrochloride (based on the equivalent weight of olopatadine free base) was used. The animal groups in Table 3 below were used during this experiment. Compound administration was performed as in Example 1, except the dosing volume was 60 μl/animal. The saline control group and ovalbumin control group received vehicle (60 μl, 0.1% Tween 80 in distilled water). In vivo evaluations were performed as in Example 1.

[4] = Crystallization of olopatadine hydrochloride in the fixed dose combination aqueous suspension versus pH; assay type: physicochemical
[5] = test system: seasonal allergic rhinitis (SAR); assay: Phase III clinical study in SAR, fall and mountain cedar season, Example 6; conditions: human, in vivo
Description: A total of 1,176 randomized subjects (˜294 subjects per treatment arm) were enrolled in the study.
Subjects were randomized to treatment in a 1:1:1:1 ratio to the following four treatment arms, at multiple study sites.
as §1, with “diary.” for “diary. They were also scheduled to have at least two blood samples for PK assessment during the treatment period.”
• Change from baseline in average AM and PM subject-reported 12-hour rTNSS (reflective TNSS) over the 14-day treatment period. […] The non-nasal symptoms are assessed in a similar manner to the ocular symptoms above. […]

[6] = Example 1, OH 50 μg, 4 hours after challenge

CN(C)CC/C=C1/c2ccccc2COc2ccc(CC(=O)O)cc21.Cl [Olopatadine Hydrochloride, (Z)-11-[3-(dimethylamino)propylidene]-6,11-dihydrodibenz[b,e]oxepin-2-acetic acid hydrochloride]
Inhibition of sneezing response (in words) (sneezing response; Example 1, OH 50 μg): did not show significant inhibition | Percent inhibition of sneeze (sneezing response; Example 1, OH 50 μg): 45% | Number of Sneeze (0-50 min) (sneezing response; Example 1, per animal: OH 50 μg, combination 50 (OH) & 10 (MF)): 12.29 | Inhibition of sneezing response (in words) (sneezing response; Example 2, OH 120 μg): did not show significant inhibition | Percent inhibition of sneeze (sneezing response; Example 2, OH 120 μg): 51% | Number of Sneeze (0-50 min) (sneezing response; Example 2, per animal: OH 120 μg, combination 120 (OH) & 10 (MF)): 17.90 | Olopatadine Tmax, Median [1]: 1.00 h | Last time point until which quantifiable concentrations were observed [2]: 48 h | Inhibition of total cell and eosinophils in nasal lavage (in words) ([3]; Example 1, OH 50 μg): did not show significant inhibition | % inhibition of eosinophils ([3]; Example 1, OH 50 μg): 2% | Percent inhibition of total cell count ([3]; Example 1, OH 50 μg): 3% | Eosinophils × 10^5/ml nasal lavage [3, 6]: 3.64 × 10^5/ml | Total cell count × 10^5/ml nasal lavage [3, 6]: 6.63 × 10^5/ml | Inhibition of total cell and eosinophils in nasal lavage (in words) ([3]; Example 2, OH 120 μg): did not show significant inhibition | % inhibition of eosinophils ([3]; Example 2, OH 120 μg): 8% | Eosinophils × 10^5/ml nasal lavage ([3]; Example 2, OH 120 μg): 3.08 × 10^5/ml | Percent inhibition of total cell count ([3]; Example 2, OH 120 μg): 17% | Total cell count × 10^5/ml nasal lavage ([3]; Example 2, OH 120 μg): 5.83 × 10^5/ml | State of olopatadine hydrochloride in the fixed dose combination aqueous suspension ([4]; pH of 5 to 5.5): crystallizes out | State of olopatadine hydrochloride in the aqueous suspension ([4]; pH of about 3.3 to about 4.1): remains dissolved

Mometasone Furoate Monohydrate and Olopatadine Hydrochloride Nasal Spray (25 mcg+600 mcg) [TP-1]
Urinary tract infection reported as adverse event [5]: 1%
